One assay relates to PBMCs. Briefly: PBMC culture with candidate peptides for 14 days, IFN-γ and IL-5 in supernatant by ELISA. It is filed as cell-based, human. The following applies: for IFN-γ/IL-5 ratio (geometric mean): peptide 10 μg/mL. An excerpt:
Measurement of antigen-specific T cell responses in the peripheral blood in humans differs depending on whether responses are high affinity interactions with foreign (viral) epitopes or lower affinity interactions involving recognition of self-antigens. […] Given that T cell responses directed against MAGE and IL-13Rα2 antigens also involve T cells with low affinity to these self-antigens, antigen-specific responses were quantified based on cytokine secretion, as recently described in a phase I study of patients with MS (Viglietta V, et al: Neurology 2008, 71(12):917-924). Cytokine production was quantified by ELISA, defining a positive T cell response for each patient as the amounts of IFN-γ or IL-5 that were >50 pg/mL and two standard deviations above the mean cytokine levels secreted after stimulation of cells from that patient with negative control MBP peptide.
Twenty-five mL of blood from patients or healthy subjects was obtained under an IRB-approved protocol. All samples of blood from patients were taken at the time of surgery. […] All tumor-bearing patients received similar doses of steroids and anti-epileptic medications at the time of tumor debulking surgery prior to obtaining peripheral blood for these studies. T cell responses in patients with meningiomas controlled for influences of steroids on antigen responsiveness and cytokine balance. Tumor tissue was independently confirmed in all cases by formal pathological analysis. PBMCs were purified from heparinized blood by density gradient centrifugation using Ficoll-Hypaque (GE Healthcare Biosciences), and cells were then washed with PBS and viable cells quantified by trypan-blue staining.
Freshly isolated PBMCs were plated at 2×10^5 cells/well in 200 μl of serum-free X-VIVO15 (X15) media (Lonza) in 96-well round-bottom cell culture plates. Candidate peptides, in addition to a negative control peptide derived from MBP were added at a concentration of 10 μg/mL and anti-CD3 mAb was added at a concentration of 1 μg/mL. Six T cell cultures were established for each condition in each subject, and 100 IU/ml of IL-2 was added on the following day. Plates were incubated at 37° C. and 5% CO2 for 14 days, with media changed as needed, and the supernatant was harvested to evaluate T cell responses (cytokines) induced by each condition using ELISA. In a limited number (n=3) of patients, cytokine production was assessed after both 7 and 14 days. […] An IFN-γ ELISPOT assay was performed as previously described (Lv H, Havari E, et al: J Clin Invest, 121(4):1561-1573).
To detect T helper cell responses directed against the candidate peptides, IFN-γ and IL-5 were measured by ELISA using commercially available kits supplied by BD bioscience. IFN-γ was used as a prototypic Th1 cytokine and IL-5 was chosen as a prototypic cytokine released by Th2 cells because unlike IL-4 there would be no potential consumption by antigen-specific T cells in the culture conditions (Kourilsky P, Truffa-Bachi P: Trends Immunol 2001, 22(9):502-509).

The subject of a further assay is DRB1*04 and *15 alleles. The following applies: literature, Mycko et al. 2004; cited from earlier work.

On to “ENPVVHFFKNIVTPR [MBP85-99, reference compound]”, for which, in the assay with PBMCs (GBM patients), the “mean cut-off for a positive cytokine response based on cytokine induced by control MBP peptide, IFN-γ” value came out at 123 pg/mL and the “mean cut-off for a positive cytokine response based on cytokine induced by control MBP peptide, IL-5” value came out at 312 pg/mL. For the same sequence, the “mean cut-off for a positive cytokine response based on cytokine induced by control MBP peptide, IFN-γ” value in the assay with PBMCs (healthy subjects) was determined as 895 pg/mL. In addition, the “HLA class II alleles shown to bind (experimental data)” value in the assay with DRB1*04 and *15 alleles is “bind to both the DRB1*04 and *15 alleles”.
ILILVIFVTGLLLRK [IL-13Ra2351-365]: the “positive wells among 6 primary T cell responses (IFN-γ or IL-5 ELISA)” value was “+ (+/++ cell=1-2 positive wells)” with PBMCs (Healthy Subject 1); “+++++ (+++++/++++++ cell=5-6 positive wells)” in the assay with PBMCs (Healthy Subject 4); “++ (+/++ cell=1-2 positive wells)” in the assay with PBMCs (Healthy Subject 5); “++ (+/++ cell=1-2 positive wells)” in the assay with PBMCs (Healthy Subject 6); “+ (+/++ cell=1-2 positive wells)” with PBMCs (Meningioma 3); “++ (+/++ cell=1-2 positive wells)” in the assay with PBMCs (Meningioma 5). For the same sequence, the “positive wells among 6 primary T cell responses (IFN-γ or IL-5 ELISA)” value was “++++++ (+++++/++++++ cell=5-6 positive wells)” in the assay on PBMCs (Meningioma 6); “+++ (+++/++++ cell=3-4 positive wells)” with PBMCs (Primary GBM 1); “++ (+/++ cell=1-2 positive wells)” with PBMCs (Primary GBM 2); “++ (+/++ cell=1-2 positive wells)” with PBMCs (Primary GBM 3); “+++ (+++/++++ cell=3-4 positive wells)” with PBMCs (Primary GBM 4); “+ (+/++ cell=1-2 positive wells)” in the assay on PBMCs (Primary GBM 5). The “positive wells among 6 primary T cell responses (IFN-γ or IL-5 ELISA)” value is “+++ (+++/++++ cell=3-4 positive wells)” in the assay on PBMCs (Primary GBM 7); “+++++ (+++++/++++++ cell=5-6 positive wells)” in the assay on PBMCs (Primary GBM 8); “++ (+/++ cell=1-2 positive wells)” with PBMCs (Recurrent GBM 1); “+ (+/++ cell=1-2 positive wells)” with PBMCs (Recurrent GBM 3); “++ (+/++ cell=1-2 positive wells)” with PBMCs (Recurrent GBM 5). The “IFN-γ/IL-5 ratio, recurrent GBM patients compared to primary GBM patients” value in the assay on PBMCs (P<0.05) is on record as “significantly lower”. Further, the results for the “IFN-γ/IL-5 ratio (geometric mean)” value in the assay with PBMCs (healthy subjects), with PBMCs (patients with primary GBMs) and in the assay on PBMCs (patients with recurrent GBMs) were 2.0, 0.3 and 0.05, respectively.

The values are drawn from patent US20150290306A1, “COMPOSITIONS AND METHODS FOR DIAGNOSIS AND TREATMENT OF MALIGNANT GLIOMAS” (priority 2012, published 2015).
